Details of data set [1]: method as in Morio et al., 1993. As to conditions: patients with ozagrel treatment; ref Morio et al., 1993; cited from earlier work.
A short description of data set [2]: Safety assessment, adverse event monitoring (Parts I-V). It is filed as in vivo, human. As for the experimental part: Safety was assessed using subject interviews and adverse event (AE) monitoring. All subjects received laboratory examinations after termination of drug infusion for 48 or 72 h; the examination items are the same as those listed in the screening process. If clinical abnormalities were present, further follow-ups were required until the laboratory test values or vital sign levels of the abnormal items returned to normal values or stable levels. The clinical significance of abnormal laboratory test values was determined by the physicians.
The vital signs were analyzed by repeated measures analysis of variance (ANOVA), and laboratory indexes were analyzed by the paired t-test and one-way ANOVA. Comparison within different dose regimens of pyragrel or among different treatments (pyragrel, ozagrel, and placebo) or production of urinary 11-D-HTXB2 among groups was performed with the t-test, and expected values were considered along with the actual situation. Descriptive methods were used to compare the incidence of AE between pyragrel and ozagrel/placebo or in different pyragrel dose regimens; the normal/abnormal changes in laboratory examinations before and after administration were described.

The conditions of data set [3]: dog, in vivo; cited from earlier work.
[4] abbreviates: Part I, controls of the 30 mg dose group (ozagrel 80 mg).
Where [5] appears, read: Part I, controls of the 120 mg dose group (ozagrel 80 mg).
The mark [6] stands for this setting: Part I, controls of the 180 mg dose group (ozagrel 80 mg).

As to `O=C(O)/C=C/c1ccc(Cn2ccnc2)cc1` [Ozagrel, Sodium ozagrel, reference compound], the “Incidence rate of severe bleeding” value in data set [1] was “up to 5%”. Also, the “Number of AEs in Part I” value in data set [2] (Part I, 36 pyragrel-treated subjects, 8 subjects of ozagrel treatment) is 3. Moreover, the “AE Type, Ozagrel/placebo” value is given as “DB elevation” in data set [2] (setting [4]), “DB elevation” in data set [2] (setting [5]) and “abdominal pain” in data set [2] (setting [6]). Also, the “Number of AEs, Ozagrel/placebo” value in data set [2] (setting [4]) stood at 1; in data set [2] (Part I, controls of the 60 mg dose group (ozagrel 80 mg)) it was 0; in data set [2] (setting [5]), 1; in data set [2] (setting [6]), 1; in data set [2] (Part I, listed as of the 240 mg dose group), 0; in data set [2] (Part I, listed as of the 300 mg dose group) it was 0. Also, in data set [2] (Total), the “Number of AEs, Ozagrel/placebo” value is 3. In data set [2] (all parts, 12/68 subjects of pyragrel, 2/8 subjects of ozagrel), the “Incidence of elevation in conjugated bilirubin (DB elevation)” value is given as 25%. Moreover, the Maximum safe dose in data set [3] was 12.5 mg/kg/day.
